Laboratory results from the CheMixHub ionic liquid set.

Test: xn = mol fraction of the nth substance listed
Conditions: for electrical conductivity: frequency 0.01 MHz

CC1CCC(=O)O1 (stereo unspecified) + CCCC[n+]1ccn(C)c1.O=S(=O)([N-]S(=O)(=O)C(F)(F)F)C(F)(F)F
electrical conductivity [S/m], 100 kPa
Conditions	293.15 K	298.15 K	303.15 K	308.15 K	313.15 K	318.15 K	323.15 K
x2 = 0.0505	0.666	0.719	0.785	0.849	0.914	0.986	1.05
x2 = 0.1001	1.01	1.11	1.21	1.31	1.42	1.54	1.67
x2 = 0.1492	1.11	1.21	1.32	1.45	1.58	1.73	1.87
x2 = 0.1998	1.1	1.21	1.34	1.48	1.62	1.77	1.92
x2 = 0.3008	0.993	1.1	1.22	1.36	1.5	1.64	1.79
x2 = 0.4031	0.816	0.913	1.02	1.13	1.25	1.38	1.51
x2 = 0.5048	0.677	0.762	0.854	0.96	1.07	1.19	1.31
x2 = 0.6031	0.561	0.636	0.72	0.818	0.918	1.03	1.16
x2 = 0.6973	0.476	0.544	0.623	0.712	0.81	0.918	1.03
x2 = 0.7994	0.394	0.457	0.531	0.612	0.703	0.807	0.919
x2 = 0.8711	0.364	0.425	0.498	0.575	0.663	0.763	0.869

COC(=O)OC + CCCC[n+]1ccn(C)c1.O=S(=O)([N-]S(=O)(=O)C(F)(F)F)C(F)(F)F
viscosity [mPa·s], 101.3 kPa
Conditions	288.15 K	293.15 K	298.15 K	303.15 K	308.15 K	313.15 K
x2 = 0	0.668	0.628	0.588	0.553	0.524	–
x2 = 0.003644	0.699	0.653	0.611	0.575	0.541	0.511
x2 = 0.004269	0.706	0.659	0.616	0.58	0.545	0.515
x2 = 0.005082	0.715	0.667	0.624	0.586	0.551	0.52
x2 = 0.005901	0.722	0.674	0.631	0.593	0.557	0.525
x2 = 0.00751	0.741	0.69	0.646	0.606	0.57	0.537
x2 = 0.008724	0.746	0.695	0.651	0.61	0.575	0.541
x2 = 0.009626	0.749	0.7	0.657	0.617	0.583	0.549
x2 = 0.01106	0.781	0.727	0.678	0.636	0.597	0.562
x2 = 0.012	0.792	0.737	0.687	0.644	0.605	0.57
x2 = 0.01269	0.801	0.744	0.695	0.651	0.61	0.576
x2 = 0.01439	0.817	0.759	0.708	0.663	0.621	0.586
x2 = 0.01534	0.827	0.768	0.717	0.671	0.629	0.592
x2 = 0.01537	0.827	0.768	0.717	0.671	0.629	0.592
x2 = 0.01726	0.847	0.786	0.734	0.686	0.643	0.604
x2 = 0.01986	0.874	0.811	0.755	0.706	0.662	0.621
x2 = 0.02243	0.902	0.836	0.778	0.728	0.681	0.641
x2 = 0.02369	0.914	0.847	0.788	0.736	0.689	0.648
x2 = 0.02616	0.937	0.869	0.808	0.754	0.706	0.663
x2 = 0.02694	0.945	0.876	0.814	0.759	0.711	0.668
x2 = 0.02906	0.968	0.897	0.834	0.778	0.728	0.683
x2 = 0.03392	1.016	0.94	0.873	0.814	0.76	0.714
x2 = 0.03978	1.072	0.991	0.921	0.857	0.802	0.751
x2 = 0.04295	1.102	1.019	0.945	0.88	0.822	0.77
x2 = 0.04638	1.134	1.048	0.971	0.904	0.845	0.791

N + CCCC[n+]1ccn(C)c1.O=S(=O)([N-]S(=O)(=O)C(F)(F)F)C(F)(F)F
313.2 K, 101 kPa
Conditions	viscosity [mPa·s]
x2 = 0.7997	20.1
x2 = 0.8338	21.7
x2 = 0.8696	22
x2 = 0.9099	23.1
x2 = 0.9541	25.1

c1ccsc1 + CCCC[n+]1ccn(C)c1.O=S(=O)([N-]S(=O)(=O)C(F)(F)F)C(F)(F)F
viscosity [mPa·s], 100 kPa
Conditions	x1 = 0.089	x1 = 0.276	x1 = 0.561	x1 = 1
298.15 K	–	–	14.73	0.655
308.15 K	29	18.8	–	–

CN(C)c1ccccc1 + CCCC[n+]1ccn(C)c1.O=S(=O)([O-])C(F)(F)F
100 kPa
Conditions	viscosity [mPa·s]
288.15 K, x1 = 0.2998	54
288.15 K, x1 = 0.397	39.3
288.15 K, x1 = 0.6997	10.05
288.15 K, x1 = 1	1.536
293.15 K, x1 = 1	1.415
298.15 K, x1 = 0.397	25.9
298.15 K, x1 = 0.8945	2.63
308.15 K, x1 = 0.2	30.7
313.15 K, x1 = 0.2	25.2
313.15 K, x1 = 0.6997	5.03
318.15 K, x1 = 0.1	27.1
318.15 K, x1 = 0.6997	4.54
318.15 K, x1 = 0.8945	1.828
323.15 K, x1 = 1	0.92
328.15 K, x1 = 0.1	19.6
328.15 K, x1 = 0.8945	1.569
333.15 K, x1 = 0.1	16.91
333.15 K, x1 = 0.5045	6.71
333.15 K, x1 = 0.8945	1.463

N[C@@H](Cc1ccccc1)C(=O)O + CCCC[n+]1ccn(C)c1.[Br-] + O
viscosity [mPa·s], 101.3 kPa
Conditions	x1 = 0.0003605, x2 = 0	x1 = 0.0007251, x2 = 0	x1 = 0.001079, x2 = 0	x1 = 0.001441, x2 = 0	x1 = 0.001797, x2 = 0	x1 = 0.00216, x2 = 0	x1 = 0.002516, x2 = 0
293.15 K	1.01	1.02	1.03	1.05	1.06	1.08	1.09
298.15 K	0.8	0.81	0.83	0.84	0.85	0.87	0.88
303.15 K	0.71	0.72	0.74	0.75	0.76	0.78	0.79
308.15 K	0.63	0.64	0.66	0.67	0.68	0.7	0.71
313.15 K	0.57	0.58	0.59	0.6	0.62	0.63	0.64

O=C1O[C@H]([C@@H](O)CO)C(O)=C1O + CCCC[n+]1ccn(C)c1.[Br-] + O
viscosity [mPa·s], 100 kPa
Conditions	293.15 K	298.15 K	303.15 K	308.15 K	313.15 K	318.15 K
x1 = 0.0003765, x2 = 0	1.008	0.898	0.804	0.725	0.66	0.607
x1 = 0.0007293, x2 = 0	1.013	0.903	0.809	0.73	0.665	0.612
x1 = 0.001087, x2 = 0	1.017	0.908	0.814	0.735	0.67	0.617
x1 = 0.001456, x2 = 0	1.023	0.914	0.819	0.74	0.674	0.621
x1 = 0.001827, x2 = 0	1.028	0.919	0.825	0.745	0.679	0.626
x1 = 0.002192, x2 = 0	1.035	0.924	0.831	0.75	0.684	0.632

COC(=O)OC + CCCCn1cc[n+](C)c1C.O=S(=O)([N-]S(=O)(=O)C(F)(F)F)C(F)(F)F
101.3 kPa, x2 = 0
Conditions	viscosity [mPa·s]
288.15 K	0.668
293.15 K	0.628
298.15 K	0.588
303.15 K	0.553
308.15 K	0.524
313.15 K	0.498
